Source: patent publication US20200095296A1, “USE OF PEPTIDES AS BIOMARKERS IN THE DIAGNOSIS, CONFIRMATION AND TREATMENT OF A NEUROLOGICAL DISORDER AND TCR AND/OR HLA IMMUNOPROFILING IN NEURODEGENERATIVE DISEASE” (THE TRUSTEES OF COLUMBIA UNIVERSITY IN THE CITY OF NEW YORK, priority 2017, published 2020)
Residue numbers refer to the chain shown, from its start. pIC50: −log10 of the molar value. Where two headings read alike, the source gives them in different places.

Tests used:
DPB1*03:01 = molecular target: T1, DPB1*03:01 (Homo sapiens, UniProt P04440+P20036, A65V/A84D/A85E/E86D/F38Y/G113D/G114E/G40L/I94L/L37V/M105V/M116V/P115A/R125K/T199I); assay: competition binding assay, purified HLA DPB1*03:01
T1 sequence (P20036 29-260): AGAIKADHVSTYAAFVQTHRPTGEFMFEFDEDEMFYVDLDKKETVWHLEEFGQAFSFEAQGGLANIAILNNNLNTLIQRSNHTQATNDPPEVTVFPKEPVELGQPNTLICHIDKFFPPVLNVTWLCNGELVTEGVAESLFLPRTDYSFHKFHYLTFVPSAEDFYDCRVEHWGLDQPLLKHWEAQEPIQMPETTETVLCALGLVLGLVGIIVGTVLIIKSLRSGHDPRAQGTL
T1 sequence (P04440 30-258 L37V/F38Y/G40L/A65V/A84D/A85E/E86D/I94L/M105V/G113D/G114E/P115A/M116V/R125K/T199I): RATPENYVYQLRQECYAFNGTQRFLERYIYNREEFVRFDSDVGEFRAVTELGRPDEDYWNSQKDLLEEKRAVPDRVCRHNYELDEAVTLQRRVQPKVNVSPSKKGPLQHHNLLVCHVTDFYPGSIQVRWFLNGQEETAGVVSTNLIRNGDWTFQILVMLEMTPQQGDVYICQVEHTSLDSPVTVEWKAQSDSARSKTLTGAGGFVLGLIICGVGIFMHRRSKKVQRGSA

DRB1*01:01 = DRB1*01:01 (Homo sapiens, UniProt P01903+P01911, A100R/D57E/F55L/F60I/F76Y/I96L/L162R/M171V/P40L/Q125E/R42F/V115G/Y59C); assay: competition binding assay, purified HLA DRB1*01:01; details: for IC50: purified HLA, radiolabeled peptide competition, nM, read-out: binding to DRB1*01:01 (IC50)
DRB4*01:01 = DRB4*01:01 (Homo sapiens, UniProt P01903+P13762, G164S); assay: competition binding assay, purified HLA DRB4*01:01; details: for IC50: purified HLA, radiolabeled peptide competition, nM, read-out: binding to DRB4*01:01 (IC50)
DRB3*02:02 = DRB3*02:02 (Homo sapiens, UniProt P01903+P79483, A212P/D57E/F66Y/L67A/R103Q/R218S/R40L/S89Y/T80R/V86D/Y55F/Y59H); assay: competition binding assay, purified HLA DRB3*02:02; details: for IC50: purified HLA, radiolabeled peptide competition, nM, read-out: binding to DRB3*02:02 (IC50)
DRB5*01:01 = DRB5*01:01 (Homo sapiens, UniProt P01903+Q30154); assay: competition binding assay, purified HLA DRB5*01:01; details: for IC50: purified HLA, radiolabeled peptide competition, nM, read-out: binding to DRB5*01:01 (IC50)
DRB1*12:01 = DRB1*12:01 (Homo sapiens, UniProt P01903+P01911, A100R/A169T/D57E/D86V/F55L/H45Y/K41T/L162R/M171V/P40S/Q125H/Q178H/Q39Y/Q99D/R42G/S66L/T262R/V114A/V67L/W38E/Y59H/Y61H/Y89S); assay: competition binding assay, purified HLA DRB1*12:01; details: for IC50: purified HLA, radiolabeled peptide competition, nM, read-out: binding to DRB1*12:01 (IC50)
DRB1*07:01 = DRB1*07:01 (Homo sapiens, UniProt P01903+P01911, A100R/A102G/A103Q/D57E/D86V/E43K/F76Y/K127E/L162R/M171V/P40G/Q125H/Q99D/R33Q/R42Y/R54Q/S133A/S66F/T210M/V115G/Y107V/Y59L/Y89S); assay: competition binding assay, purified HLA DRB1*07:01; details: for IC50: purified HLA, radiolabeled peptide competition, nM, read-out: binding to DRB1*07:01 (IC50)
DRB1*04:05 = DRB1*04:05 (Homo sapiens, UniProt P01903+P01911, A100R/A169T/D86S/F76Y/I96L/K127E/L162R/M171V/N62H/P40V/Q125Y/R42H/S133A/S149N/S66Y/V115G/V209L/W38E); assay: competition binding assay, purified HLA DRB1*04:05; details: for IC50: purified HLA, radiolabeled peptide competition, nM, read-out: binding to DRB1*04:05 (IC50)
DPB1*04:01 = molecular target: T2, DPB1*04:01 (Homo sapiens, UniProt P04440); assay: competition binding assay, purified HLA DPB1*04:01
T2 sequence (P04440 30-258): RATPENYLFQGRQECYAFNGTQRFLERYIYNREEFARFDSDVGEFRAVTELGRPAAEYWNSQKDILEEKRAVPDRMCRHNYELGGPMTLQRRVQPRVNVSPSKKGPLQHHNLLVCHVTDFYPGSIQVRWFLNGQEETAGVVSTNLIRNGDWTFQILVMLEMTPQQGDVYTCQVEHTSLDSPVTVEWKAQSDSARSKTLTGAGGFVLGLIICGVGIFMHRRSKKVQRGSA
T2 sequence (P20036 29-260 partner): T1 sequence (P20036 29-260)

DPB1*04:02 = molecular target: T3, DPB1*04:02 (Homo sapiens, UniProt P04440+P20036, A65V/A84D/A85E/L207M); assay: competition binding assay, purified HLA DPB1*04:02
T3 sequence (P04440 30-258 A65V/A84D/A85E/L207M): T2 sequence (P04440 30-258) with A36V, A55D, A56E, L178M
T3 sequence (P20036 29-260): T1 sequence (P20036 29-260)

DRB1*03:01 = DRB1*03:01 (Homo sapiens, UniProt P01903+P01911, A100K/A102G/A103R/A169T/F55Y/I96L/K41T/L162R/M171V/P40S/Q125H/Q178H/Q39Y/R42S/S66N/T106N/T262R/W38E/Y61H); assay: competition binding assay, purified HLA DRB1*03:01; details: for IC50: purified HLA, radiolabeled peptide competition, nM, read-out: binding to DRB1*03:01 (IC50)
DRB1*13:02 = DRB1*13:02 (Homo sapiens, UniProt P01903+P01911, A100E/A169T/K41T/L162R/M171V/P40S/Q125H/Q178H/Q39Y/Q99D/R42S/S66N/T262R/V115G/W38E/Y61H); assay: competition binding assay, purified HLA DRB1*13:02; details: for IC50: purified HLA, radiolabeled peptide competition, nM, read-out: binding to DRB1*13:02 (IC50)
DRB1*11:01 = DRB1*11:01 (Homo sapiens, UniProt P01903+P01911, A100R/A169T/A87E/I96F/K41T/L162R/M171V/P40S/Q125H/Q178H/Q39Y/Q99D/R42S/S66Y/T262R/V115G/W38E); assay: competition binding assay, purified HLA DRB1*11:01; details: for IC50: purified HLA, radiolabeled peptide competition, nM, read-out: binding to DRB1*11:01 (IC50)
DRB1*09:01 = DRB1*09:01 (Homo sapiens, UniProt P01903+P01911, A100R/A103E/D57H/D86V/F55Y/F60I/F76Y/I96F/K127E/L162R/M171V/P40D/Q125H/Q99R/R33Q/R42F/S133A/S66N/T210M/V115G/W38K/Y107V/Y59G/Y89S); assay: competition binding assay, purified HLA DRB1*09:01; details: for IC50: purified HLA, radiolabeled peptide competition, nM, read-out: binding to DRB1*09:01 (IC50)

Structure (SMILES) | pIC50 (DPB1*03:01) | pIC50 (DPB1*04:01) | pIC50 (DPB1*04:02) | IC50 (DRB1*01:01) [nM] | IC50 (DRB4*01:01) [nM] | IC50 (DRB3*02:02) [nM] | IC50 (DRB5*01:01) [nM] | IC50 (DRB1*12:01) [nM] | IC50 (DRB1*07:01) [nM] | IC50 (DRB1*04:05) [nM] | IC50 (DRB1*03:01) [nM] | IC50 (DRB1*13:02) [nM] | IC50 (DRB1*11:01) [nM] | IC50 (DRB1*09:01) [nM] | other results
CSCC[C@H](NC(=O)[C@H](CCC(=O)O)NC(=O)[C@H](Cc1ccc(O)cc1)NC(=O)[C@H](C)NC(=O)[C@H](CCC(=O)O)NC(=O)[C@H](CC(N)=O)NC(=O)[C@@H](N)CC(=O)O)C(=O)N1CCC[C@H]1C(=O)N[C@@H](CO)C(=O)N[C@@H](CCC(=O)O)C(=O)N[C@@H](CCC(=O)O)C(=O)NCC(=O)N[C@@H](Cc1ccc(O)cc1)C(=O)N[C@@H](CCC(N)=O)C(=O)N[C@@H](CC(=O)O)C(=O)O | < 5.00 | < 5.00 | < 5.00 |  |  |  |  |  |  |  |  |  |  |  | pIC50 (DRB1*01:01): < 5.00; pIC50 (DRB4*01:01): < 5.00; pIC50 (DRB3*02:02): < 5.00; pIC50 (DRB5*01:01): < 5.00; pIC50 (DRB1*12:01): < 5.00; pIC50 (DRB1*07:01): < 5.00; pIC50 (DRB1*04:05): 5.71; pIC50 (DRB1*03:01): < 5.00; pIC50 (DRB1*13:02): < 5.00; pIC50 (DRB1*11:01): < 5.00; pIC50 (DRB1*09:01): 5.34
CSCC[C@H](NC(=O)[C@H](CCC(=O)O)NC(=O)[C@H](Cc1ccc(O)cc1)NC(=O)[C@H](C)NC(=O)[C@H](CCC(=O)O)NC(=O)[C@H](CC(N)=O)NC(=O)[C@@H](N)CC(=O)O)C(=O)N1CCC[C@H]1C(=O)N[C@@H](COP(=O)(O)O)C(=O)N[C@@H](CCC(=O)O)C(=O)N[C@@H](CCC(=O)O)C(=O)NCC(=O)N[C@@H](Cc1ccc(O)cc1)C(=O)N[C@@H](CCC(N)=O)C(=O)N[C@@H](CC(=O)O)C(=O)O |  |  |  | > 10000 | > 10000 | > 10000 | > 10000 | > 10000 | > 10000 | > 10000 | > 10000 | > 10000 | > 10000 | > 10000 | IC50 (DPB1*03:01; purified HLA, radiolabeled peptide competition, nM, read-out: binding to DPB1*03:01 (IC50)): > 10000 nM; IC50 (DPB1*04:01; purified HLA, radiolabeled peptide competition, nM, read-out: binding to DPB1*04:01 (IC50)): > 10000 nM; IC50 (DPB1*04:02; purified HLA, radiolabeled peptide competition, nM, read-out: binding to DPB1*04:02 (IC50)): > 10000 nM
CSCC[C@H](NC(=O)[C@@H](N)CCC(=O)O)C(=O)N1CCC[C@H]1C(=O)N[C@@H](COP(=O)(O)O)C(=O)N[C@@H](CCC(=O)O)C(=O)N[C@@H](CCC(=O)O)C(=O)NCC(=O)N[C@@H](Cc1ccc(O)cc1)C(=O)N[C@@H](CCC(N)=O)C(=O)N[C@@H](CC(=O)O)C(=O)N[C@@H](Cc1ccc(O)cc1)C(=O)N[C@@H](CCC(=O)O)C(=O)N1CCC[C@H]1C(=O)N[C@@H](CCC(=O)O)C(=O)N[C@@H](C)C(=O)O | < 5.00 | < 5.00 | < 5.00 | > 10000 | > 10000 | > 10000 | > 10000 | > 10000 | > 10000 | > 10000 | > 10000 | > 10000 | > 10000 | > 10000 | 
